Results from patent US11136328B2, “3,3-difluoropiperidine carbamate heterocyclic compounds as NR2B NMDA receptor antagonists” (Rugen Holdings (Cayman) Limited, priority 2015, dated 2021).

Columns and labels:
rats [1] = assay: Cortical spreading depression (CSD) migraine model; assay type: in vivo
Description: The cortical spreading depression model is utilized to investigate whether treatment with compounds of the present invention affect electrophysiological and hemodynamic events in a rat model of migraine.
Rats were anesthetized with 5% isoflurane (in 70% N2O and 30% O2; flow 300 ml/min) and placed in a stereotactic frame. […] The rectal temperature was maintained at 37.0±1.0° C. with a homeothermic blanket system. The skin was opened by a medial incision and retracted laterally. Three burr holes were drilled under saline cooling over the right hemisphere at the following coordinates (mm from bregma): (1) posterior 4.5, lateral, 2.0 (occipital cortex): KCl application site; (2) posterior 0.5, lateral 2.0 (parietal cortex): LDF recording site; (3) anterior 2, lateral 2 (frontal cortex): DC potential recording site. A laser-Doppler flow probe (Oxyflow, Oxford Optronics, UK) to monitor CBF and an invasive Ag/AgCl electrode for measuring direct current (DC) potential shifts were placed in the parietal and frontal cortex burr holes on the intact dura and in the cortex, respectively. The laser-Doppler flow probe was positioned in an area free of large pial and dural vessels to minimize a large-vessel contribution to the signal. For the DC-potential measurement, a reference electrode was fixed in the neck. Dura overlying the occipital cortex was gently removed and care was taken to avoid bleeding. After surgical preparation, the cortex was allowed to recover for 15 minutes under saline irrigation. A cotton ball (2 mm diameter) soaked with 1M KCl was placed on the pial surface and kept moist by placing 5 μl of KCl solution every 15 minutes. Test compound or vehicle was administered ten (10) minutes prior to CSD initiation. […] The number of KCl-induced CSDs was counted for 2 hours. The CBF and DC-potentials were monitored continuously starting from 5 minutes before KCl exposure.
Test compound E1-1.2 was administered as a mesylate salt (mpk based on molecular weight of the mesylate salt).
The data was collected in Windaq acquisition software (Dataq Instruments, USA) at 20 kHz. The raw data was analyzed in Clampfit program (Axon Instruments, USA). The signals were low pass filtered (cut off range 5-10000 Hz) that CSD episodes in DC and CBF could be confirmed. The following parameters were analyzed: i) the number, duration and amplitude of DC-potentials, and ii) the number and amplitude of CBF events.

rats [2] = assay: Pentylenetetrazole (PTZ) Seizure Test; assay type: in vivo; conditions: 10 mg/kg p.o. 30 min before PTZ 100 mg/kg s.c.
Description: Rats, placed in individual macrolon cages (25×19×13 cm), were injected with pentylenetetrazole (PTZ) (100 mg/kg s.c.). The occurrence and latency of clonic and tonic convulsions and death were noted over a 30 minute period. 15 rats were studied per group. The test was performed blind.
(§1) Test compound E1-8.2 was administered as the free base.
Compounds were evaluated typically using 0.5% dimethylsulfoxide, 4% hydroxypropyl-b-cyclodextrin water as a vehicle at 1 or more doses (e.g., 1, 3 and 10 mg/kg), administered p.o. 30 minutes before PTZ, and compared with a vehicle control group. Diazepam (16 mg/kg p.o.), administered 60 minutes before PTZ, was used as reference substance. The experiment was performed over 2 separate sub-experiments with N=7 to 8 animals per group and per sub-experiment. Quantitative data (latencies) with the test substance was analyzed by comparing treated groups with vehicle control using Kruskal-Wallis test followed by Mann-Whitney U test. Quantitative data with the reference substance was analyzed using Mann-Whitney U test. Quantal data (frequencies) was analyzed by comparing treated groups with vehicle control using Fisher's Exact Probability tests (*=p<0.05; **=p<0.01; ***=p<0.001).

rats [3] = assay: Rat formalin model; assay type: in vivo; conditions: each of 10, 30 and 60 mpk i.p., mesylate salt
Description: The rat formalin model is a tonic model of continuous pain resulting from formalin-induced spontaneous nociceptive behaviors. Intra-paw injection of formalin is a commonly used model to measure spontaneous nociceptive behaviors in rodents (Dubuisson, D. and Dennis, S. G. Pain 4:161, 1977). Subcutaneous plantar injection of formalin causes a bi-phasic nocifensive behavioral response in rodents. The early phase (phase-1) lasts for about 5-10 min following which an interphase occurs without any discernible nociceptive reactions after which the late phase (phase-II) nociceptive reaction ensues continuing from about 20-60 min following formalin injection. Formalin model is a model of tonic, persistent pain, and is widely used for rapid screening of novel analgesic compounds. […] In the present example, effects of test item were assessed in 0-5 minutes from the early phase (phase-I) and 20-35 minutes from the late phase (phase-II) of formalin-induced nociceptive behavior. […]
For all groups, animals were acclimated to the observation chamber for 15 minutes immediately prior to formalin injection. All animals received an intraplantar subcutaneous injection of 50 μL of 5% formalin into the left hind paw and then placed immediately into an observation chamber and formalin-evoked spontaneous nociceptive behaviors in the rats were continuously recorded for 0-60 min using a commercial camcorder. […]

hERG channel = hERG channel (Homo sapiens (Human), UniProt Q12809); assay: hERG channel inhibition, whole cell patch clamp; assay type: cell-based; conditions: 10 μM compound
Sequence of hERG channel (Q12809 whole entry): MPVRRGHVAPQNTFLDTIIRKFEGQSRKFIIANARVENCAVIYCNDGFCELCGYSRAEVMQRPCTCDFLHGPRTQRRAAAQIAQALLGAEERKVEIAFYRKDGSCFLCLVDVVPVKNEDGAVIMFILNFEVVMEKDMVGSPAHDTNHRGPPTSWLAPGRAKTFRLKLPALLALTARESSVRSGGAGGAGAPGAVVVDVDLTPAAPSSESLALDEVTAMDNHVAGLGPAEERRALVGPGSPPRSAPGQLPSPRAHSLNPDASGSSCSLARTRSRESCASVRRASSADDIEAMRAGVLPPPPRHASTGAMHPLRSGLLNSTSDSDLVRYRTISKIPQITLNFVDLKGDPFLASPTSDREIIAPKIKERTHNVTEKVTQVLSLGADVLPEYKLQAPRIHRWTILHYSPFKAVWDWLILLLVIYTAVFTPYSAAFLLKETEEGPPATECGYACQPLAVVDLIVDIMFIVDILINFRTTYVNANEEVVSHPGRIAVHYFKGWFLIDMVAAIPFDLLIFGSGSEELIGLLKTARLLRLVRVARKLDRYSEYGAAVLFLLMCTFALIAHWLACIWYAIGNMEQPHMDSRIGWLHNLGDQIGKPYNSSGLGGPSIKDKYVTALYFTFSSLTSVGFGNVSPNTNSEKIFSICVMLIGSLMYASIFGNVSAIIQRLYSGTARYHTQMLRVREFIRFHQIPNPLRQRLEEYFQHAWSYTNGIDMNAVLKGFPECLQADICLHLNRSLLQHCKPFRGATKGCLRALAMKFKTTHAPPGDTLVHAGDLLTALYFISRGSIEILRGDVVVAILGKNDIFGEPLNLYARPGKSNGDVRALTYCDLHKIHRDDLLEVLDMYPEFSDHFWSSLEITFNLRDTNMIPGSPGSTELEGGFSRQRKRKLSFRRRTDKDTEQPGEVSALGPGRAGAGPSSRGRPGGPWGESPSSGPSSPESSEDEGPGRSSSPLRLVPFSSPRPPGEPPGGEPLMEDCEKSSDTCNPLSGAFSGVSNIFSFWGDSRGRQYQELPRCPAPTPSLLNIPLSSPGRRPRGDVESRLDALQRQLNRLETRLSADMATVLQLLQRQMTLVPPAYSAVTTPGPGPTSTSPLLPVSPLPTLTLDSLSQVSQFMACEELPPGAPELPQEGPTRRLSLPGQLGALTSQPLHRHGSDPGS
Description: The assay was performed on hERG channel stably expressed in HEK293 cells. The cells were cultured at 37° C. in a humidified CO2 incubator in the growth medium consisting of DMEM, 10% fetal bovine serum and antibiotics. Prior to the assay, the cells were seeded onto a 12 mm PDL-coated glass coverslip and cultured in a 35 mm Petri dish. After 16 to 40 hr culture, the cover slip was transferred into the chamber of OctaFlow perfusion system (ALA Instrument) and under a constant flow of extracellular solution (140 mM NaCl, 4 mM KCl, 1 mM MgCl2, 2 mM CaCl2, 10 mM HEPES, 10 mM D-glucose, pH 7.35, osmolarity 290). Whole cell patch clamping was performed with a glass micropipette filled with intracellular solution (120 mM KCl, 1.75 mM MgCl2, 5.4 mM CaCl2, 10 mM HEPES, 10 mM EGTA, and 4 mM ATP-K2, PH 7.2, osmolarity 310). Giga-seal was maintained during the test. The voltage control and current measurement were carried out using Axon amplifier 700B, Digidata 1440A and CLAMPEX10 software (Molecular Devices). Whole-cell hERG currents were recorded following the Petroski protocol: the cell was held at −80 mV, and the voltage step jumped from −80 to 30 mV and stay for 2 sec with a 20 ms prepulse at −40 mV. After depolarization, the voltage was decreased to −40 mV and stay for 2 sec, and returned back to −80 mV. Test compound was applied by quartz capillary tubes tip (200 μm inner diameter), and the flow rate was controlled at 2-3 ml/min with OctaFlow perfusion system. Different concentrations of the compound were applied to the cells for 5 min and the hERG current was measured three times before, during and after compound treatment. The data were analyzed using Clampfit 10 software (Molecular Devices) to generate IC50 values.

rats [4] = assay: Electroconvulsive Threshold Test (ECT); assay type: in vivo; conditions: 3, 10 and 30 mpk p.o., mesylate salt
Description: as §1
Rats were administered ECS (rectangular current: 0.6 ms pulse width, 1.5 s duration, 200 Hz) via earclip electrodes connected to a constant current shock generator (Ugo Basile: type 7801). Test compounds were administered by oral gavage (p.o.) 1 hour before the test at a dose volume of 5 mL/kg.
Treatment groups of 20 rats were exposed to ECS as follows: The first animal was exposed to 30 mA of ECS. […] (increases of 5 mA) until the first tonic convulsion was observed. Once the first tonic convulsion was observed, the intensity of ECS was decreased by 2 mA for the next animal and then decreased or increased by 2 mA from animal to animal depending on whether the previous animal convulsed or not. If the first animal did convulse (tonic convulsions) within 5 seconds, animal no 2 is exposed to 25 mA, etc. . . . (decreases of 5 mA) until the absence of tonic convulsions was observed. At this point, the intensity of ECS was increased by 2 mA for the next animal and then decreased or increased by 2 mA from animal to animal depending on whether the previous animal convulsed or not. The minimum current intensity applied is 5 mA and the maximum 95 mA. The first 5 animals serve to approach threshold current and were not included in the analysis. The results are presented as the mean current intensity administered to the final 15 animals of a group. The test was performed blind. A positive percent change indicates an anticonvulsant effect. A negative percent change indicates a proconvulsant effect. The test substance was evaluated at 4 doses, typically using 0.5% dimethylsulfoxide, 4% hydroxypropyl-b-cyclodextrin water as a vehicle, and administered p.o. 60 minutes before ECS, and compared with a vehicle control group. Diazepam (16 mg/kg p.o.), administered under the same experimental conditions, was used as reference substance. The experiment included 6 groups. Data with the test substance was analyzed by comparing treated groups with vehicle control using one-way ANOVA followed by Dunnett's t tests.

CYP2D6 = CYP2D6 (Homo sapiens (Human), UniProt P10635); assay: CYP P450 enzyme inhibition in pooled human liver microsomes; assay type: in vitro ADME; conditions: 10 μM compound, pooled HLM
Sequence of CYP2D6 (P10635 whole entry): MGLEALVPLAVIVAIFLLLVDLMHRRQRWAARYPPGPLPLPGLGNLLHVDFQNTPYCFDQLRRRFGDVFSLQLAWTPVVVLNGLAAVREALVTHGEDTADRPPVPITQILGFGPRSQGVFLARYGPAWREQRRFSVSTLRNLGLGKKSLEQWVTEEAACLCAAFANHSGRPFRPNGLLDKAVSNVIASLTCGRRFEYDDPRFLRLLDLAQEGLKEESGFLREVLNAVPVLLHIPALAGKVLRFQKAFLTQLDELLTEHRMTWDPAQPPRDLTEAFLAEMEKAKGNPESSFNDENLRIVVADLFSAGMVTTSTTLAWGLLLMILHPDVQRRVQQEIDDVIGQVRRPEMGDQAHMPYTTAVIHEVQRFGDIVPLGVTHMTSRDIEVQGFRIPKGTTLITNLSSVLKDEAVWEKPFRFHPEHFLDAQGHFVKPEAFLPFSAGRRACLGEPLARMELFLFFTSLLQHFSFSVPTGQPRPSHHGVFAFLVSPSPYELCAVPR
Description: Those CYP isoforms and their corresponding probe substrates are as follows: CYP1A2 (phenacetin, 30 μM), CYP2C9 (tolutamide, 100 μM), CYP2C19 (S-mephenytoin, 40 μM), CYP2D6 (dextromethorphan, 5 μM) and CYP3A4 (midazolam, 1 μM). All probe substrates were used at concentrations near or below their Kms. For experiment, a reaction mixture of test compound at 10 μM or in serial dilution, CYP probe substrate described above and 0.2 mg/mL pooled HLM in phosphate buffer, pH 7.4 in a final volume of 200 μL was pre-incubated at 37° C. for 10 minutes in triplicate. The reaction was initiated by addition of NADPH at final concentration of 1 mM. The reaction was terminated after 10 minutes (CYP1A2, CYP2D6 and CYP3A4) or 30 minutes (CYP2C9 and CYP2C19) by addition of 100 μL ice-cold acetonitrile with internal standard (IS). The samples were then centrifuged at 13,000 rpm and the supernatants were injected to LC-MS/MS (Agilent Technologies) to quantify the concentration of the specific metabolites of the probe substrates formed by individual CYP450 isoforms. The inhibition ratio is calculated as: (Mt−M0)/Mwater×100% in which Mt and M0 represent the concentrations of the specific probe substrate metabolite, which was formed by individual CYP450 isoform, at the beginning and end of the reaction in the presence of test compound; while Mwater represents the concentration of the specific metabolite at the end of the reaction in the absence of test compound. Test compound concentration-dependent response data experiments performed in triplicate.

rats [5] = assay: Haloperidol-induced Catalepsy (HIC) model; assay type: in vivo; conditions: 8 mg/kg p.o. 60 minutes before the test
Excerpt: The Haloperidol-induced Catalepsy (HIC) model detects antipsychotic activity and the action of NR2B selective antagonists (Steece-Collier et al. Exp. Neurol. 163: 239, 2000) and was based on methods described by Chermat and Simon (J. Pharmacol., 6, 493-496, 1975). The capacity to induce catalepsy serves as an index of the liability of a test substance to induce extrapyramidal side-effects, in particular Parkinsonism. Antagonism of antipsychotic-induced catalepsy can thus serve to detect anti-Parkinson potential.
Rats were injected with haloperidol (1 mg/kg i.p.) and were examined for catalepsy at 30 minute intervals up to 360 minutes. Presence (+) or absence (−) of catalepsy was assessed by three procedures: 1) imposed crossing of the ipsilateral fore- and hind-limbs; 2) placing the animal in the Buddha position; 3) the tilting board, an automatic device that, 5 seconds after positioning the rat, displaces the rat from a horizontal to vertical position and back while it clings to a wire grid with its front paws. Akinesia and catalepsy were assessed depending on whether or not the animal moves before (akinesia) or during operation of the board (catalepsy). […]
Amphetamine (8 mg/kg p.o.), administered 60 minutes before the test (i.e. 90 minutes before the first measurement), was used as reference substance. […] Data with the reference substance were analyzed using Mann-Whitney U tests.

[6] = E1-1.2 at various doses, MK-801 1.25 mg/kg

Row | SMILES | magnitude of CBF vs vehicle (rats [1]) | number of DC potentials vs vehicle group (rats [1]; 3 mpk, 10 mpk and 30 mpk, mesylate salt) | number of CBF events vs vehicle (rats [1]; E1-1.2 at 10 mg/kg, MK-801 at 1.25 mg/kg) | amplitude of DC potentials vs vehicle (rats [1]; [6]) | duration of DC potentials vs vehicle (rats [1]; [6]) | change in latency to death (rats [2]) | change in number of deaths vs vehicle controls (rats [2]) [%] | cumulative time spent on nociceptive behavior in phase I (0-5 mins) (rats [3]) | cumulative time spent on nociceptive behavior in phase II (20-35 mins) (rats [3]) | hERG @ 10 μM (%) (hERG channel) | activity on electroconvulsive threshold (rats [4]) | CYP2D6 @ 10 μM (%) (CYP2D6) | anticataleptic activity (rats [5])
1 | Cc1ccc(COC(=O)N2CC[C@H](CNc3nccn4cnnc34)C(F)(F)C2)cc1 [Compound E1-1.2, (+)-R-4-methylbenzyl 4-(([1,2,4]triazolo[4,3-a]pyrazin-8-ylamino)methyl)-3,3-difluoropiperidine-1-carboxylate] | unchanged | significantly decreased | decreased | not statistically different compared to vehicle | not statistically different compared to vehicle | +35% | −91 | decreased | decreased | 17 | robust anticonvulsant activity | 14 | –
2 | CC(N)Cc1ccccc1 (stereo not shown) [amphetamine] | – | – | – | – | – | – | – | – | – | – | – | – | showed the expected robust anticataleptic activity
